Reference: patent US5155130A, “Certain benzopyran and benzothiopyran derivatives” (Ciba-Geigy Corporation, priority 1990, dated 1992)

Tests used:
[1] = system: 5-lipoxygenase; test: Ex vivo A-23187-stimulated LTB4 formation in whole blood after oral administration; conditions: dog, about 0.3 mg/kg p.o.
Experimental: Furthermore, the inhibition of 5-lipoxygenase is determined after oral or i.v. administration to rats or dogs by measuring ex vivo in whole blood the decrease of A-23187-stimulated LTB4 formation as compared to non-treated control animals.

[2] = system: rat pleurisy model of inflammation; test: Carrageenin-induced pleurisy model of inflammation; type: in vivo; conditions: 10 mg/kg p.o. at -1, 6, 24 and 45 hours relative to carrageenin injection, 48 hours after injection
Description: 214, 74 (1980), in particular during the late phase of the corrageenin-induced pleurisy.

[3] = system: rat chronic colitis model; test: Trinitrobenzenesulfonic acid-induced chronic colitis model; type: in vivo; conditions: 100 mg/kg p.o. for 4 days
Description: The trinitrobenzenesulfonic acid-induced chronic colitis test in the rat, e.g. as described by Wallace et al, Gastroenterology 1989, 96, 29-36, can be used to evaluate compounds for effects indicative of utility in inflammatory bowel diseases.

[4] = target: T1, 5-lipoxygenase (Cavia porcellus, UniProt A0A286X958); test: Inhibition of 5-HETE and LTB4 synthesis in A-23187-stimulated guinea pig polymorphonuclear leukocytes; type: cell-based; conditions: read-out: IC50 for inhibition of the formation of 5-HETE and leukotriene B4 (LTB4)
T1 construct: A-23187-stimulated guinea pig polymorphonuclear leukocytes; endogenous in cells; host or cells: guinea pig polymorphonuclear leukocytes
T1 sequence (A0A286X958 1-674): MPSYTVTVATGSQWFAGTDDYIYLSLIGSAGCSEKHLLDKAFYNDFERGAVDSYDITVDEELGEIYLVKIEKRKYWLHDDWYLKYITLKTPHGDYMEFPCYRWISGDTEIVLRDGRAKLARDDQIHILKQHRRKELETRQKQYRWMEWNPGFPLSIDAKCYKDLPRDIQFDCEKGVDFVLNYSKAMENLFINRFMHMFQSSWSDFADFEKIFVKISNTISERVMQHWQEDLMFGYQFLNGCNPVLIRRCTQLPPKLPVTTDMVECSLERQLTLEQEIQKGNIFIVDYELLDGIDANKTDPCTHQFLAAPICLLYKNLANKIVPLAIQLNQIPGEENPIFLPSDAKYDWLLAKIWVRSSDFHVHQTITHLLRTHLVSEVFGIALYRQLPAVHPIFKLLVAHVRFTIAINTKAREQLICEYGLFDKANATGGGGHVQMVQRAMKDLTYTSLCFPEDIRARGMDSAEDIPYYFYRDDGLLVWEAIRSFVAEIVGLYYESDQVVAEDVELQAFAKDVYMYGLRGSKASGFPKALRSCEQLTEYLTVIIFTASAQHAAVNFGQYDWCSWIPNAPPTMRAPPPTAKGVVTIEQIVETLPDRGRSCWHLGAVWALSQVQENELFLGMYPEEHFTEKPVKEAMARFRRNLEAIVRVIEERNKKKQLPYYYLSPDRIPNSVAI
Experimental: 5-Lipoxygenase inhibition is determined e.g. by measuring the percent inhibition of the synthesis of 5-HETE [(5S)-5-hydroxy-6,8,11,14-eicosa-tetraenoic acid] and leukotriene B4 (LTB4, 5,12-dihydroxy-6,8,10,14-eicosatetraenoic acid) in A-23187-stimulated guinea pig polymorphonuclear leukocytes, essentially according to radiometric thin-layer chromatographic assays described by Walker and Dawson (J. Pharm. Pharmacol. 31: 778, 1979) and Jakschik and Lee (Nature 287: 51, 1980) to measure the formation of 5-HETE and LTB4 -like products from ^14 C-arachidonic acid. IC50 values are determined graphically as the concentration of test compound at which the synthesis of 5-HETE and LTB4 -like products is reduced to 50% of their respective control values.

Row | IC50 [4] [nM] | Structure (SMILES) | inhibition of LTB4 formation as determined ex vivo [1] | cell count of leukocytes [2] | inhibition of exudate volume [2] | inhibition of colitis [3]
1 |  | CNC(=O)N(O)CC1=Cc2cc(Oc3ccc(F)cc3)ccc2OC1 [5(f), 3-[{N-(N'-methylaminocarbonyl)-N-hydroxy}aminomethyl]-6-(p-fluorophenoxy)-2H-1-benzopyran] | significant inhibition | lower | inhibition | 
2 | ~50 | NC(=O)N(O)CC1=Cc2cc(Oc3ccccc3)ccc2OC1 [2(d), 3-[(N-Aminocarbonyl-N-hydroxy)aminomethyl]-6-phenoxy-2H-1-benzopyran] | significant inhibition | lower | inhibition | inhibits colitis
